Assay results as given in publication PMC13403234, “Engineering Cathepsin S Selective Chemical Probes and Antibody−Drug Conjugates through Substrate Profiling with Unnatural Amino Acids” (Journal of Medicinal Chemistry, 2026).

Assays:
Cathepsin S [1] = biological target: T1, Cathepsin S (Homo sapiens, UniProt P25774); assay: Second-order rate constants of inhibition (kobs/[I]), cathepsin S; type: biochemical
T1 construct: made in house
Description: (§1) All kinetic studies were performed using an fMax fluorescence plate reader (Molecular Devices) in kinetic mode with 96- or 384-well plates. ACC fluorescence was monitored at excitation and emission wavelengths of 355 and 460 nm, respectively. Recombinant human cysteine cathepsins L, V, B, K, and S were expressed and purified as previously described. Prior to use, all cysteine cathepsins were titrated with E64 to normalize enzymatic activity. Assays for cathepsins were conducted in 100 mM sodium acetate buffer containing 10 mM NaCl and 10 mM DTT (pH 5.5). Breast cancer cell lysates (BT-474, MCF-7, MDA-MB-231) were prepared by culturing cells to confluence in the appropriate media, replacing media with PBS, and harvesting the cells using a cell scraper (without trypsin). The cells were pelleted by centrifugation (400 × g, 5 min), resuspended in PBS, and centrifuged again under the same conditions. After removal of the supernatant, the pellet was resuspended in cathepsin assay buffer (excluding DTT) and sonicated. Lysates were then clarified by centrifugation (12,000 × g, 5 min), and the supernatants were collected and stored at −80 °C until use. All enzymatic assays, including HyCoSuL library screening and kinetic analyses of synthetic substrates, inhibitors, probes and prodrugs, were conducted at 37 °C and repeated at least three times. Mean values are reported. Kinetic data were analyzed using GraphPad Prism software (version 10.4.1).
(§2) The second-order rate constants of inhibition (k obs/[I]) were determined for human recombinant cathepsins S, B, L, and V using their respective assay buffers. All measurements were performed under pseudo-first-order kinetic conditions, as previously described. Inhibitors or ABPs were serially diluted in assay buffer and transferred to a 96-well plate. Each well was supplemented with the fluorogenic substrate Cbz-Phe-Arg-AMC at a final concentration of 25 μM and preincubated for 15 min. In parallel, enzymes were preactivated in assay buffer for 15 min at room temperature. Following preincubation, the activated enzymes were added to the wells, and fluorescence was monitored immediately for 30 min. The k obs/[I] values (M^-1S^-1) were calculated from the progress curves and averaged from at least three independent experiments. Final inhibitor (or ABP) concentrations were maintained at a minimum of 5-fold excess relative to enzyme concentrations to ensure pseudo-first-order conditions. Results were analyzed in GraphPad Prism and are reported as mean ± standard deviation.

Cathepsin V = biological target: T2, Cathepsin V (Homo sapiens, UniProt O60911); assay: Second-order rate constants of inhibition (kobs/[I]), cathepsin V; type: biochemical; conditions: Figure 4D; Cy5- and BODIPY-labeled probes
T2 construct: made in house
Description: as §1, §2

[2] = biological target: T3, active cathepsin S in MDA-MB-231 live cells (Homo sapiens, UniProt P25774); assay: Labeling of active cathepsin S in MDA-MB-231 live cells with Cy5 probes; type: cell-based; conditions: probe 1 μM, 0,5 to 24 h
T3 construct: endogenous in cells; host or cells: MDA-MB-231
Description: (§3) 50,000 of MDA-MB-231 cells were seeded into 12-well plate and allowed to attach overnight. The next day, OG-233 and OG-234 probes (1 μM final concentration) were added to the cells and incubated for various times (from 0,5 h up to 24 h). Control cells were preincubated with cathepsin S inhibitors (JN1, JN4, JN7) at 25 μM for 2 h, and then incubated with OG-233 or OG-234 probes for 24 h. Next, cells were harvested and prepared for SDS-PAGE analysis as described in the above section. Electrophoresis was run for 25 min (4−12% Bis-Tris Plus 10-well gel, 200 V). Next, proteins were transferred onto the membrane (0.2 μm nitrocellulose membrane, 10 V, 60 min) and Ponceau S was used to verify equal loading and transfer. Membranes were then blocked with 5% BSA in TBS-T buffer for 1 h at RT. Membranes were next incubated anticathepsin S antibody (1:1,000, overnight, 4 °C), and the next day with a secondary antibody (IRDye 800CW, donkey anti-Goat) for 30 min at RT, and scanned at 680 and 800 nm using the Sapphire biomolecular imager (Azure Biosystems) to detect the Cy5 probes and cathepsin S. All images were analyzed with Image Studio software.

Cathepsin B [3] = biological target: T4, Cathepsin B (Homo sapiens, UniProt P07858); assay: Labeling of cathepsin B in MDA-MB-231 live cells with Cy5 probes; type: cell-based; design: endogenous in cells; host or cells: MDA-MB-231; conditions: cellular environments; probe labeling
Description: as §3

Cathepsin L = biological target: T5, Cathepsin L (Homo sapiens, UniProt P07711); assay: Second-order rate constants of inhibition (kobs/[I]), cathepsin L; type: biochemical; conditions: Figure 4D; Cy5- and BODIPY-labeled probes
T5 construct: made in house
Description: as §1, §2

Cathepsin S [4] = biological target: T1, Cathepsin S; assay: SDS-PAGE profiling of cathepsin labeling by OG-233 ABP; type: biochemical; conditions: cathepsins 10 nM; probe 10, 100, 500 nM; 30 min
Description: Subsequently, each enzyme preparation was incubated with OG-233 at final probe concentrations of 10 nM, 100 nM, and 500 nM for 30 min in a total reaction volume of 200 μL. After incubation, 100 μL of 3× SDS loading buffer containing DTT was added to each sample. The mixtures were boiled for 5 min, and 20 μL of each sample was loaded onto 4−12% Bis-Tris Plus gels (15-well format). Electrophoresis was performed at 200 V for 30 min alongside 2 μL of PageRuler Prestained Protein Ladder. Following separation, the gels were scanned directly at 700 nm (Cy5 fluorescence channel, excitation 685 nm) using a Sapphire biomolecular imager (Azure Biosystems). Band intensities corresponding to labeled cathepsins were quantified using Image Studio software.

Cathepsin B [5] = biological target: T4, Cathepsin B; assay: Second-order rate constants of inhibition (kobs/[I]), cathepsin B; type: biochemical; design: made in house; conditions: Figure 4D; Cy5- and BODIPY-labeled probes
Description: as §1, §2

T1 sequence (P25774 115-331): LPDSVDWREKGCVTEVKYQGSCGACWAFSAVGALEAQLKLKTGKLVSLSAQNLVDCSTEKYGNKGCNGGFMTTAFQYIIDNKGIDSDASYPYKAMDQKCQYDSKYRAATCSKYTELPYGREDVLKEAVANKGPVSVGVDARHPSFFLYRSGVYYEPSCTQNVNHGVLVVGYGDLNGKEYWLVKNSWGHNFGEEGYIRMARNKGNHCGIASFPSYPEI
T3 sequence (P25774 115-331): as above
T5 sequence (P07711 114-333): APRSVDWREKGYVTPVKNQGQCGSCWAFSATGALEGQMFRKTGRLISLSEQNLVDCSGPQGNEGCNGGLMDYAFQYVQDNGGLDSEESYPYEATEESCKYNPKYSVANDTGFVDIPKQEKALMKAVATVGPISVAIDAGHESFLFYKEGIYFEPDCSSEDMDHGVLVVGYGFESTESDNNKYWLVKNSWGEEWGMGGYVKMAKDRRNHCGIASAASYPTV
T2 sequence (O60911 114-334): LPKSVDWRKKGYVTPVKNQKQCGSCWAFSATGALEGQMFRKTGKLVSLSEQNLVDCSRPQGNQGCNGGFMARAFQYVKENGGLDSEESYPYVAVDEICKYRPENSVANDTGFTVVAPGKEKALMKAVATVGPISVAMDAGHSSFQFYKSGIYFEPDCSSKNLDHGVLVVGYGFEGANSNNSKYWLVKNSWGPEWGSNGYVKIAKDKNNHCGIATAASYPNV

Substance: Cy5-PEG(4)-Phe(F5)-Cit-Lys(2ClZ)-Glu(Me)-AOMK [OG-233]
- kobs/[I] Cath S (Cathepsin S [1]; Figure 4D, Cy5- and BODIPY-labeled probes): 1,537,000 M^-1s^-1
- Selectivity S to B (Cathepsin S [1]; Figure 4D, calculated from kobs/[I], cathepsin S over cathepsin B): 180
- Selectivity S to L (Cathepsin S [1]; Figure 4D, calculated from kobs/[I], cathepsin S over cathepsin L): 2,700
- Selectivity S to V (Cathepsin S [1]; Figure 4D, calculated from kobs/[I], cathepsin S over cathepsin V): 3,340
- higher potency than the unlabeled parent inhibitor (Cathepsin S [1]; cathepsin S kobs/[I], probe vs parent inhibitor): over 2 fold
- selectivity for cathepsin S over cathepsin L (Cathepsin S [1]; kobs/[I] based): > 2000 fold
- selectivity for cathepsin S over cathepsin V (Cathepsin S [1]; kobs/[I] based): > 500 fold
- kobs/[I] Cath V (Cathepsin V): 460 M⁻¹ s⁻¹
- detection of active cathepsin S in living cells [2]: able to detect active cathepsin S as soon as upon 3 h incubation
- off-target labeling of cathepsin B in cells (Cathepsin B [3]): minor off-target labeling of cathepsin B
- kobs/[I] Cath L (Cathepsin L): 570 M⁻¹ s⁻¹
- labeling of recombinant cathepsins (fluorescent gel scanning) (Cathepsin S [4]): labeled recombinant cathepsin S over other cathepsins
- kobs/[I] Cath B (Cathepsin B [5]): 8,520 M^-1s^-1
